Type in all cases: functional, organism-based
The test system of assay [1] is Leishmania braziliensis. Kind of assay: Antiparasitic activity against Leishmania braziliensis assessed as lysis of parasite at 100 ug/mL.
Assay [2] deals with Leishmania donovani. As to the kind of experiment: Antiparasitic activity against Leishmania donovani assessed as lysis of parasite at 100 ug/mL.
In assay [3] the test system is Leishmania amazonensis. Kind of assay: Antiparasitic activity against Leishmania amazonensis assessed as lysis of parasite at 100 ug/mL.
In assay [4] the test system is Trypanosoma cruzi. Kind of assay: Antiparasitic activity against Trypanosoma cruzi Y trypomastigotes assessed as lysis of parasite at 250 ug/mL after 24 hrs.
For assay [5], the system named is Leishmania braziliensis. As to the kind of experiment: Antiparasitic activity against Leishmania braziliensis assessed as lysis of parasite at 5 ug/mL.
Assay [6] deals with Leishmania donovani. Kind of assay: Antiparasitic activity against Leishmania donovani assessed as lysis of parasite at 5 ug/mL.
Assay [7] relates to Leishmania amazonensis. As to the kind of experiment: Antiparasitic activity against Leishmania amazonensis assessed as lysis of parasite at 5 ug/mL.
For assay [8], the system named is Trypanosoma cruzi. As to the kind of experiment: Antiparasitic activity against Trypanosoma cruzi Y trypomastigotes assessed as lysis of parasite after 24 hrs.
The subject of assay [9] is Leishmania braziliensis. Kind of assay: Antiparasitic activity against Leishmania braziliensis at 25 ug/mL.
The subject of assay [10] is Leishmania donovani. Kind of assay: Antiparasitic activity against Leishmania donovani at 25 ug/mL.
The test system of assay [11] is Leishmania amazonensis. Kind of assay: Antiparasitic activity against Leishmania amazonensis at 25 ug/mL.

Activity calls are given as the source filed them. No cut-off for these calls is given here.

Turning to MEGLUMINE ANTIMONATE, the Activity in assay [1], in [2] and in assay [3] was 40% in each case.
Turning to `CN(C)c1ccc(C(=C2C=CC(=[N+](C)C)C=C2)c2ccc(N(C)C)cc2)cc1`, the outcome in assay [4] was Active.
As for `N=C(N)c1ccc(OCCCCCOc2ccc(C(=N)N)cc2)cc1`, the result in [5], in assay [6] and in [7] was Active.
As for `CC(C)=CCCC1(C)C=CC2=C(O1)C(=O)C(C)=C(CC=C(C)C)C2=O` (stereo not given), the outcome in assay [8] was inactive.
As to `CC(C)=CCC/C(C)=C/CC1=C(O)C(=O)C(C)(CC=C(C)C)CC1=O` (stereo not given), the outcome in [8] was inactive. Moreover, the outcome in assay [9], in [1], in [10], in assay [2], in [11] and in [3] was Active.

The values are drawn from ChEMBL document CHEMBL1158220, “New prenylated quinones from Peperomia galioides” (J Nat Prod, 1996).
